Holding throughout (format): cell-based, chicken
The subject of test [1] is VJ region of antibody light chain gene in DT40 cell line (3H12). Kind of test: MNase sensitivity (indirect end labeling, Southern blot) of antibody light chain gene chromatin after TSA treatment. To be noted: 3H12 cells incubated 8 hours with TSA 0.625, 1.25, 2.5 ng/ml; MNase 0.04-1 U. The protocol: Whether an alteration of the chromatin structure of the antibody light chain gene has actually been produced by TSA was analyzed using indirect end labeling with micrococcal nuclease (MNase) sensitivity as an indicator. Among chicken antibody alleles, one is VJ rearranged and the other one is not rearranged, but it is known that actually functional in antibody production is VJ rearranged one. However, since both sequences are almost identical, it is difficult to analyze VJ rearranged allele of wild type DT40 cells by simple application of indirect end labeling method. In order to solve this problem, on the side for which VJ recombination has not occurred, a mutant of which sequences in the vicinity of the region to be used as a Southern hybridization probe is deleted is generated, and an analysis of MNase sensitivity using this mutant was performed. […]
The nuclear pellet was resuspended in 10 ml RSB (10 mM Tris-HCl (pH7.5), 10 mM NaCl, 1.5 mM MgCl2, 0.5 mM DTI. 1 mM PMSF). […] The DNA concentration of this nuclear suspension was measured by Hoechst 33258 binding, and suspension corresponding to 100 μg was made into […] with RSB. […]

For test [2], the system named is IgM(-) DT40 cells. Kind of test: IgM expression by FACS (appearance frequency of IgM(+) cells). Conditions: 1.25 ng/ml trichostatin A, measured every other week by FACS. How it is done: (§1) At this time, a medium with 1.25 ng/ml trichostatin A added, and a medium with this not added, were prepared. This was incubated until single colonies appeared, and 5 clones (For No TSA, 6 clones) were transferred to a 6 well plate with 2 ml of fresh medium inside. At this time, incubation was continued by maintaining the original TSA concentration, and maintaining the cell concentration at 10^5-10^6 cells/ml.
Culture fluid containing approximately 10^6 IgM(−) cells on which trichostatin A treatment was done by the method described in Embodiment 2 was put in 1.5 ml tubes, said cells were recovered by centrifuging (1000 g, 5 minutes), and suspended in 200 μl of staining buffer (PBS, 0.3% BSA). The cells were recovered by centrifuging again, then suspended in 200 μl of FITC-labeled anti chicken IgM antibody (BETHYL) diluted to 1/250 fold with a staining buffer, and reacted for 1 hour on ice. The cells were recovered by centrifuging, then the cells were washed by suspending them again in 200 μl of staining buffer, and centrifuging this. After repeating this washing step one more time, the cells were suspended in 100 μl of staining buffer containing 5 μg/ml of propidium iodide (Nakarai). The fraction of cells expressing IgM was calculated by measuring 10 000 cells with an EPICS ELITE ESP (Beckman Coulter). At this time, cells stained by propidium iodide were gated out as dead cells.

The test system of test [3] is DT40 cells. Kind of test: Sequence analysis of antibody light chain gene variable region (somatic homologous recombination). How it is done: DT40 cells were incubated at 39.5 degrees C. in a CO2 constant temperature oven in 5% CO2. IMDM medium (Invitrogen) was utilized as the medium, with 10% FBS, 1% chicken serum, 100 units/ml penicillin, 100 μg/ml streptomycin, and 55 μM 2-mercaptoethanol added. Additionally, for trichostatin A (Wako Pure Chemical Industries), this was dissolved to 5 mg/ml in methanol for stock, and this was used by diluting in an appropriate medium until the final concentration was 1.25 ng/ml.
as §1
With the abovementioned method, live cells of DT40 that were incubated for 3 weeks were recovered by fluorescence-activated cell sorter. With an EPICS ELITE ESP, 100 000 live cells were collected in a 1.5 ml tube. […]
PCR (Perkin Elmer 9600) was utilized for the amplification of the antibody light chain gene variable region. […] Plasmids were extracted, and the sequence was analyzed by an ABI PRI SM 377 DNA Sequencer (Perkin Elmer).

On to `CC(/C=C/C(=O)NO)=C\[C@@H](C)C(=O)c1ccc(N(C)C)cc1` [trichostatin A], for which, in test [1], the “accessibility of MNase to the VJ regions” value is “increased” and the “chromatin structure of the VJ regions” value is given as “relaxed”. The “fraction of cells expressing IgM (IgM(+) cells)” value in test [2] is “increased time dependently”. In addition, the “diversity of antibody light chain genes” value in test [3] (DT40 cells cultured 3 weeks with 1.25 ng/ml trichostatin A vs absence) is listed as “rose markedly”. For the same compound, the “number of sequence types of antibody light chain gene variable region among 42 samples” value in test [3] (DT40 cells cultured 3 weeks with 1.25 ng/ml trichostatin A, 42 samples) was determined as 16 types.

Source of the values: patent US8187884B2, “Method of enhancing homologous recombination of somatic cells and method of constructing specific antibody” (Riken, priority 2002, dated 2012).
